According to US8158628B2, “Sulfonylated 1,2,3,4-tetrahydropyrrolo[1,2-a]pyrazine compounds and their use as pharmaceuticals” (Gruenenthal GmbH, priority 2009, dated 2012):

Key:
[1] = biological target: T1, B1R of the rat (Rattus norvegicus, UniProt P97583); assay: FLIPR Ca2+ functional assay, B1R antagonism, rat B1R in CHO K1 cells; format: cell-based; conditions: test substance 10 μM; rB1R CHO K1 cells; agonist Des-Arg9 bradykinin at EC80; % of maximum achievable inhibition
T1 construct: expressed in transfected cells; host or cells: CHO K1 cells (Chinese hamster ovary), stably transfected
T1 sequence (P97583 1-337): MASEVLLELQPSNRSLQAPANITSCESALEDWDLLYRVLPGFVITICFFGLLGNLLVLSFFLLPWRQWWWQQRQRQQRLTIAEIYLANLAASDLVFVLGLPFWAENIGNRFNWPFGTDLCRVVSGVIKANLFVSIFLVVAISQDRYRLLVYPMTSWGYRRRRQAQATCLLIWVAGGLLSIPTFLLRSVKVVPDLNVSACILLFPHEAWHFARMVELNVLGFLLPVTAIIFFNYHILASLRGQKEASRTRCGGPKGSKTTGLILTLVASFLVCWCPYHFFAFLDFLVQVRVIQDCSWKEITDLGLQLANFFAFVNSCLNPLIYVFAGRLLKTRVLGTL
Method in brief: (§1)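 IC50 values come from varied compound concentrations applied 10-20 min before an EC80 agonist challenge, with Des-Arg9 bradykinin for rat and Lys-Des-Arg9 bradykinin for human receptor. Ca2+ influx in Fluo-4-loaded CHO K1 transfectants was measured by FLIPR peak fluorescence. Data are % inhibition vs maximum, n=2-3, N>=2.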

[2] = biological target: T2, human B1R (Homo sapiens, UniProt P46663); assay: FLIPR Ca2+ functional assay, B1R antagonism, human B1R in CHO K1 cells; format: cell-based; conditions: test substance 10 μM; hB1R CHO K1 cells; agonist Lys-Des-Arg9 bradykinin at EC80; % of maximum achievable inhibition
T2 construct: expressed in transfected cells; host or cells: CHO K1 cells (Chinese hamster ovary), stably transfected
T2 sequence (P46663 1-353): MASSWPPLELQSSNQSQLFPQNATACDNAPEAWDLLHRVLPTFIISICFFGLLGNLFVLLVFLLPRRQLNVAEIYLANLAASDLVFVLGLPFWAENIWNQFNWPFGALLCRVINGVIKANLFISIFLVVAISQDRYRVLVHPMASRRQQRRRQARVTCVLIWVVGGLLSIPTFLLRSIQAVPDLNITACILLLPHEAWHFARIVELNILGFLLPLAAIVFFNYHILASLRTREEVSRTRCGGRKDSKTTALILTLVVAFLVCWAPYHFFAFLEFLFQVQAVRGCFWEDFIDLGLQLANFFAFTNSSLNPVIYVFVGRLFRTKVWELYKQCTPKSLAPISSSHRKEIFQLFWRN
Method in brief: as §1

| SMILES | inhibition at 10 µM [1] [%] | inhibition at 10 µM [2] [%] |
| --- | --- | --- |
| COc1ccc2cc(S(=O)(=O)N3CCn4cccc4C3CC(=O)NC3CCc4cc(CN5CCCc6ccccc65)ccc4C3)ccc2c1 (stereo not shown) [Example 105, 2-[2-[(6-Methoxy-naphthalen-2-yl)sulfonyl]-1,2,3,4-tetrahydro-pyrrolo[1,2-a]pyrazin-1-yl]-N-[6-(1,2,3,4-tetrahydro-quinolin-1-yl-methyl)-1,2,3,4-tetrahydro-naphthalen-2-yl]-acetamide] | 103 | 99.8 |
| COc1cc(C)c(S(=O)(=O)N2CCn3cccc3C2COCC(=O)N2[C@@H]3CC[C@H]2C[C@H](Oc2ccncc2)C3)c(C)c1 (stereo partly drawn) [Example 23, 2-((2-(4-Methoxy-2,6-dimethylphenylsulfonyl)-1,2,3,4-tetrahydropyrrolo[1,2-a]pyrazin-1-yl)methoxy)-1-((1R,3S,5S)-3-(pyridin-4-yloxy)-8-azabicyclo[3.2.1]octan-8-yl)ethanone] | 108 | 100 |
| COc1cc(C)c(S(=O)(=O)N2CCn3cccc3C2COCC(=O)N(C)C2CCN(c3ccncc3)CC2)c(C)c1 (stereo not shown) [Example 39, 2-[[2-[(4-Methoxy-2,6-dimethyl-phenyl)sulfonyl]-1,2,3,4-tetrahydro-pyrrolo[1,2-a]pyrazin-1-yl]-methoxy]-N-methyl-N-(1-pyridin-4-yl-piperidin-4-yl)-acetamide] | 105 | 99.6 |
| COc1cc(C)c(S(=O)(=O)N2CCn3cccc3C2COCC(=O)N2CCC(CN3CCN(C)CC3)C2)c(C)c1 (stereo not shown) [Example 37, 2-[[2-[(4-Methoxy-2,6-dimethyl-phenyl)sulfonyl]-1,2,3,4-tetrahydro-pyrrolo[1,2-a]pyrazin-1-yl]-methoxy]-1-[3-[(4-methyl-piperazin-1-yl)-methyl]-pyrrolidin-1-yl]-ethanone] | 104 | 97.8 |
| Cc1ccc(S(=O)(=O)N2CCn3cccc3C2CC(=O)N[C@@H]2CCCc3cc(CNC(C)(C)C)ccc32)cc1 (stereo partly drawn) [Example 42, N-[(1R)-6-[(tert-Butylamino)-methyl]-1,2,3,4-tetrahydro-naphthalen-1-yl]-2-[2-(p-tolylsulfonyl)-1,2,3,4-tetrahydro-pyrrolo[1,2-a]pyrazin-1-yl]-acetamide] | 107 | 99.9 |
| Cc1cccc(Cl)c1S(=O)(=O)N1CCn2cccc2C1COCC(=O)N1CCC(Oc2ccncc2)CC1 (stereo not shown) [Example 6, 2-((2-(2-Chloro-6-methylphenylsulfonyl)-1,2,3,4-tetrahydropyrrolo[1,2-a]pyrazin-1-yl)methoxy)-1-(4-(pyridin-4-yloxy)piperidin-1-yl)ethanone] | 100 | 99.6 |
| Cc1cccc(Cl)c1S(=O)(=O)N1CCn2cccc2C1COCC(=O)N1CCC2(CC1)CCN(c1ccncc1)CC2 (stereo not shown) [Example 15, 2-((2-(2-Chloro-6-methylphenylsulfonyl)-1,2,3,4-tetrahydropyrrolo[1,2-a]pyrazin-1-yl)methoxy)-1-(9-(pyridin-4-yl)-3,9-diazaspiro[5.5]undecan-3-yl)ethanone] | 98.3 | 99.9 |
| Cc1ccc(S(=O)(=O)N2CCn3cccc3C2CC(=O)NC2CCCc3cc(CNC(C)(C)C)ccc32)cc1Cl (stereo not shown) [Example 70, N-[6-[(tert-Butylamino)-methyl]-1,2,3,4-tetrahydro-naphthalen-1-yl]-2-[2-[(3-chloro-4-methyl-phenyl)sulfonyl]-1,2,3,4-tetrahydro-pyrrolo[1,2-a]pyrazin-1-yl]-acetamide] | 102 | 99.9 |
| COc1ccc2cc(S(=O)(=O)N3CCn4cccc4C3CC(=O)NC3CCCc4cc(CN(C)C)ccc43)ccc2c1 (stereo not shown) [Example 106, N-[6-(Dimethylaminomethyl)-1,2,3,4-tetrahydro-naphthalen-1-yl]-2-[2-[(6-methoxy-naphthalen-2-yl)sulfonyl]-1,2,3,4-tetrahydro-pyrrolo[1,2-a]pyrazin-1-yl]-acetamide] | 101 | 100 |

Results, then the compound that gave them:

| inhibition at 10 µM [1] [%] | inhibition at 10 µM [2] [%] | SMILES |
| --- | --- | --- |
| 98.9 | 99.7 | CN1CCN(Cc2ccc3c(c2)CCC(NC(=O)CC2c4cccn4CCN2S(=O)(=O)c2cccc(C(F)(F)F)c2)C3)CC1 (stereo not shown) [Example 68, N-[6-[(4-Methyl-piperazin-1-yl)-methyl]-1,2,3,4-tetrahydro-naphthalen-2-yl]-2-[2-[[3-(trifluoromethyl)phenyl]sulfonyl]-1,2,3,4-tetrahydro-pyrrolo[1,2-a]pyrazin-1-yl]-acetamide] |
| 98 | 99.7 | Cc1ccc(S(=O)(=O)N2CCn3cccc3C2CC(=O)NC2CCCc3cc(CN4CCCCC4)ccc32)cc1Cl (stereo not shown) [Example 56, 2-[2-[(3-Chloro-4-methyl-phenyl)sulfonyl]-1,2,3,4-tetrahydro-pyrrolo[1,2-a]pyrazin-1-yl]-N-[6-(piperidin-1-yl-methyl)-1,2,3,4-tetrahydro-naphthalen-1-yl]-acetamide] |
| 103 | 96 | Cc1cc(S(=O)(=O)N2CCn3cccc3C2CC(=O)NC2CCc3cc(CN4CCCCC4)ccc3C2)c(C)cc1Cl (stereo not shown) [Example 25, 2-(2-(4-chloro-2,5-dimethylphenylsulfonyl)-1,2,3,4-tetrahydropyrrolo[1,2-a]pyrazin-1-yl)-N-(6-(piperidin-1-ylmethyl)-1,2,3,4-tetrahydronaphthalen-2-yl)acetamide] |
| 100 | 99.9 | Cc1ccc(S(=O)(=O)N2CCn3cccc3C2CC(=O)NC2CCc3cc(CN4CCOCC4)ccc3C2)cc1Cl (stereo not shown) [Example 66, 2-[2-[(3-Chloro-4-methyl-phenyl)sulfonyl]-1,2,3,4-tetrahydro-pyrrolo[1,2-a]pyrazin-1-yl]-N-[6-(morpholin-4-yl-methyl)-1,2,3,4-tetrahydro-naphthalen-2-yl]-acetamide] |
| 99 | 99.9 | Cc1ccc(S(=O)(=O)N2CCn3cccc3C2CC(=O)NC2CCCc3cc(CN4CCCC4)ccc32)cc1Cl (stereo not shown) [Example 91, 2-[2-[(3-Chloro-4-methyl-phenyl)sulfonyl]-1,2,3,4-tetrahydro-pyrrolo[1,2-a]pyrazin-1-yl]-N-[6-(pyrrolidin-1-yl-methyl)-1,2,3,4-tetrahydro-naphthalen-1-yl]-acetamide] |
| 100 | 99.8 | O=C(CC1c2cccn2CCN1S(=O)(=O)c1cccc(C(F)(F)F)c1)NC1CCc2cc(CN3CCCC3)ccc2C1 (stereo not shown) [Example 84, N-[6-(Pyrrolidin-1-yl-methyl)-1,2,3,4-tetrahydro-naphthalen-2-yl]-2-[2-[[3-(trifluoromethyl)phenyl]sulfonyl]-1,2,3,4-tetrahydro-pyrrolo[1,2-a]pyrazin-1-yl]-acetamide] |
| 99.7 | 99.9 | COc1ccc2cc(S(=O)(=O)N3CCn4cccc4C3CC(=O)NC3CCCc4cc(CN5CCCC5)ccc43)ccc2c1 (stereo not shown) [Example 98, 2-[2-[(6-Methoxy-naphthalen-2-yl)sulfonyl]-1,2,3,4-tetrahydro-pyrrolo[1,2-a]pyrazin-1-yl]-N-[6-(pyrrolidin-1-yl-methyl)-1,2,3,4-tetrahydro-naphthalen-1-yl]-acetamide] |
| 97.5 | 99.8 | O=C(CC1c2cccn2CCN1S(=O)(=O)c1cccc(C(F)(F)F)c1)NC1CCCc2cc(CN3CCCC3)ccc21 (stereo not shown) [Example 86, N-[6-(Pyrrolidin-1-yl-methyl)-1,2,3,4-tetrahydro-naphthalen-1-yl]-2-[2-[[3-(trifluoromethyl)phenyl]sulfonyl]-1,2,3,4-tetrahydro-pyrrolo[1,2-a]pyrazin-1-yl]-acetamide] |
| 103 | 99.8 | CNCc1ccc2c(c1)CCC(NC(=O)CC1c3cccn3CCN1S(=O)(=O)c1ccc(C)c(Cl)c1)C2 (stereo not shown) [Example 138, 2-[2-[(3-Chloro-4-methyl-phenyl)sulfonyl]-1,2,3,4-tetrahydro-pyrrolo[1,2-a]pyrazin-1-yl]-N-[6-(methylamino-methyl)-1,2,3,4-tetrahydro-naphthalen-2-yl]-acetamide] |
| 102 | 99.8 | Cc1ccc(S(=O)(=O)N2CCn3cccc3C2CC(=O)NC2CCc3cc(CN4CCCCC4)ccc3C2)cc1 (stereo not shown) [Example 29, N-(6-(piperidin-1-ylmethyl)-1,2,3,4-tetrahydronaphthalen-2-yl)-2-(2-tosyl-1,2,3,4-tetrahydropyrrolo[1,2-a]pyrazin-1-yl)acetamide] |
| 99.1 | 100 | O=C(CC1c2cccn2CCN1S(=O)(=O)c1cccc(C(F)(F)F)c1)NC1CCCc2cc(CN3CCCCC3)ccc21 (stereo not shown) [Example 89, N-[6-(Piperidin-1-yl-methyl)-1,2,3,4-tetrahydro-naphthalen-1-yl]-2-[2-[[3-(trifluoromethyl)phenyl]sulfonyl]-1,2,3,4-tetrahydro-pyrrolo[1,2-a]pyrazin-1-yl]-acetamide] |
